Tests used:
[1] = test system: BDNF-induced nuclear Arc expression in primary cortical neurons; assay: Chemogenomic screen: high-content image-based assay of BDNF-induced nuclear Arc expression (96-well); type: cell-based, mouse
Outline: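 DIV13 mouse primary cortical neurons (30,000 cells/well) are treated with compound at 16.7 µM and BDNF, in three biological replicates. Arc and acetyl-H3K9 are immunostained and imaged at ×40, and nuclear Arc signal is quantified automatically using acetyl-H3K9 as the nuclear mask.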

HDAC1 = biological target: T1, HDAC1 (Homo sapiens, UniProt Q13547); assay: Biochemical HDAC assay (BPS Bioscience), HDAC1; details: 25 µM
T1 construct: purchased BPS Bioscience (San Diego, CA), contract assay service
T1 sequence (Q13547 whole entry): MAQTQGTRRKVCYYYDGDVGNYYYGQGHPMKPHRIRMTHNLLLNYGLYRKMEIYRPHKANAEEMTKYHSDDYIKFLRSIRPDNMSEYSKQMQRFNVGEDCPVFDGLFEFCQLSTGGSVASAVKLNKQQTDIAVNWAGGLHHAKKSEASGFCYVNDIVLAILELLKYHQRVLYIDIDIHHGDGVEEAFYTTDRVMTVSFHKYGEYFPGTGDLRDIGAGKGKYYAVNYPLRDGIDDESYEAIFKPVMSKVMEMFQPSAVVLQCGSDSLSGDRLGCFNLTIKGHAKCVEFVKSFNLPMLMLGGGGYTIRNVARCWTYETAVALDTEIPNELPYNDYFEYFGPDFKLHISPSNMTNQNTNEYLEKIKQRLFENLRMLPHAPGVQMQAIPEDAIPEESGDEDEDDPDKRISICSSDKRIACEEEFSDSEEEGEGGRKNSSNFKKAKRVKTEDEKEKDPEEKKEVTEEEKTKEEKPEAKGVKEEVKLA

HDAC2 = biological target: T2, HDAC2 (Homo sapiens, UniProt Q92769); assay: Biochemical HDAC assay (BPS Bioscience), HDAC2; details: 25 µM
T2 construct: purchased BPS Bioscience (San Diego, CA), contract assay service
T2 sequence (Q92769 whole entry): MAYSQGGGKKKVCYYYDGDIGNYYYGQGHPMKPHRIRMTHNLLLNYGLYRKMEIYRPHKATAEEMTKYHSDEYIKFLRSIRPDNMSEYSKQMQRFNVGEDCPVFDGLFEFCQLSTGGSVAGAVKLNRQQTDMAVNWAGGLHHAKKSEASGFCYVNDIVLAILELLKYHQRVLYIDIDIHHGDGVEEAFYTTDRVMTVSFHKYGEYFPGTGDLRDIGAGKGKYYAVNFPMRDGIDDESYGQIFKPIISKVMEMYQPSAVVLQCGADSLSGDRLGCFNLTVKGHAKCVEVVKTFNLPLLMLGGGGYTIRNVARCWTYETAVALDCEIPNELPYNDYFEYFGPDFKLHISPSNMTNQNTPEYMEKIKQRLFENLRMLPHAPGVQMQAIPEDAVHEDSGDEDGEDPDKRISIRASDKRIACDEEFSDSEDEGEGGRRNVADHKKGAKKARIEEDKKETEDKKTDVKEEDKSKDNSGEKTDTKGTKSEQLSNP

[2] = test system: AMPAR currents in primary cortical neurons; assay: Single-cell electrophysiology of AMPA-mediated mEPSCs; type: cell-based, mouse
Description: Primary cortical neurons cultured on glass coverslips were recorded at DIV15 in voltage clamp mode. The external solution was kept at 25 °C and contained 120 mM NaCl, 2 mM KCl, 1 mM MgCl2, 1.5 mM CaCl2, 10 mM 4-(2-hydroxyethyl)-1-piperazineethane-sulfonic acid (HEPES) and 15 mM glucose. […]. Patch recording pipettes (3–6 MΩ) were filled with an internal solution (pH 7.2). The internal solution contained 120 mM K-gluconate, 6 mM NaCl, 1 mM MgCl2, 10 mM HEPES, and 0.2 mM ethylene glycol tetraacetic acid. Data were acquired using an HEKA EPC-10 patch-clamp amplifier interfaced with PatchMaster software and analyzed using FitMaster software (HEKA Elektronik, Holliston, MA) and MiniAnalysis (Synaptosoft, Fort Lee, NJ). Miniature EPSCs were recorded for a minimum of 2 min at a holding potential of −80 mV. Analysis of synaptic event data was performed using MiniAnalysis software with event detection threshold set at maximum root mean squared noise level (5 pA). Recordings of synaptic events were assessed for frequency (Hz) and mean amplitude (pA).

[3] = test system: Arc protein in dentate gyrus; assay: Arc immunohistochemistry in dentate gyrus after intraperitoneal injection; type: in vivo, mouse; details: 30 mg kg−1 i.p., 3 h
Description: Male mice (C57BL/6 strain) were received as 6-weeks old and habituated to their home cage as trios for 2 weeks before conducting the experiments. During the habituation time period, mice were kept on a light–dark cycle with minimal disruption and unrestricted access to food and water. On experiment day, mice from the same cage were taken and randomly subjected to intraperitoneal injection of vehicle (25% Kolliphor EL (Sigma-Aldrich, C5135), 10% DMSO) or AK-7 (30 mg kg^−1) solution and immediately placed back in their home cage or transferred to a novel environment. The novel environment consisted of a large cage placed in a different room with new bedding, food, as well as multiple objects like tunnel, running wheel, igloo, and aspen labyrinth that the mice could freely explore. About 3 h after the injection procedure, mice were rapidly anesthetized and killed by decapitation. Finally, brain tissues were harvested and flash frozen in a dry ice/isopentane bath and stored at −80 °C. All experiments were approved by the Animal Care and Use Committee of the Massachusetts General Hospital and carried out according to institutional guidelines.
Coronal sections containing the hippocampus from all animals were cut from the frozen blocks at a thickness of 20 µm with a CM3050 cryostat (Leica, Nussloch, Germany). […]
(§1) The following approach was adopted to quantify the number of Arc-positive cell bodies and average acetyl-H3K9 immunostaining pixel intensity in dentate gyrus. First, complete dentate gyrus overlapping grayscale images of DAPI fluorescence and Arc or acetyl-H3K9 immunostaining were collected using a ×20 objective and Nikon Eclipse 90i upright microscope equipped with a motorized stage and image stitching capability. Second, the boundary of the dentate gyrus based on the DAPI fluorescence was determined in each image set with the ImageJ wand tool. Finally, this information was used for image segmentation and quantification of Arc-positive cell bodies or average acetyl-H3K9 immunostaining pixel intensity within each dentate gyrus images. […]

[4] = test system: acetyl-H3K9 in dentate gyrus; assay: Acetyl-H3K9 immunohistochemistry in dentate gyrus after intraperitoneal injection; type: in vivo, mouse; details: 30 mg kg−1 i.p., 3 h, home cage
Description: Male mice (C57BL/6 strain) were received as 6-weeks old and habituated to their home cage as trios for 2 weeks before conducting the experiments. During the habituation time period, mice were kept on a light–dark cycle with minimal disruption and unrestricted access to food and water. On experiment day, mice from the same cage were taken and randomly subjected to intraperitoneal injection of vehicle (25% Kolliphor EL (Sigma-Aldrich, C5135), 10% DMSO) or AK-7 (30 mg kg^−1) solution and immediately placed back in their home cage or transferred to a novel environment. […]
as §1

## O=C(Nc1cccc(Br)c1)c1cccc(S(=O)(=O)N2CCCCCC2)c1 [AK-7]
[1]; 16.7 µM, three biological replicates
  rank among potentiators of BDNF-induced nuclear Arc expression in screen: first
[1]; chemogenomic (SMART) screen, BDNF-induced nuclear Arc expression, primary cortical neurons, BDNF control 19.5
  Percentage of cell with nuclear Arc immunostaining above 2σ threshold: 61.6%
[1]; nuclear Arc-positive cells relative to DMSO + BDNF control, negative values = decrease
  Fold-change — Normalized to DMSO control (BDNF): 3.2 fold
HDAC1
  inhibitory activity toward HDAC1: failed to show any inhibitory activity
HDAC2
  inhibitory activity toward HDAC2: failed to show any inhibitory activity
[2]; AK-7 and BDNF 6 h vs BDNF alone, DIV15
  mEPSC amplitude: significant decrease in the amplitude of mEPSCs
[2]; untreated, BDNF alone, AK-7 plus BDNF
  mEPSC frequency: all similar
[3]; home cage
  Arc immunofluorescence signal intensity in cell bodies vs vehicle: not statistically different
  number of neurons with prominent Arc immunostaining in dentate gyrus vs vehicle: more than eight times
[3]; novel environment
  number of Arc immunopositive cell bodies in dentate gyrus vs vehicle: did not led to more Arc immunopositive cell bodies
[4]
  acetyl-H3K9 immunofluorescence staining intensity in dentate gyrus vs vehicle: small but statistically significant increase

— paper PMC5698418 (Nature Communications, 2017)
